SMILES strings stand for the structures. Where “and” joins values, the source holds several entries; their conditions need not be identical. Equal values may be shown once.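 Five compound concentrations were applied to cells in 96-well plates for 48 hours; endpoints were derived by simple linear interpolation of the resulting dose-response curve. The concentration for 50% growth inhibition is given as GI50. The concentration for full growth arrest is given as TGI.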

As a reminder, the GI50 is the concentration at which growth is held to half of that of the control. Broadly, the TGI is the concentration giving total growth inhibition. Read a high TGI as less potent growth arrest.

What all share (assay): DTP human tumour cell line panel, 48 h
Experiment [1] relates to RXF 393 renal.
The test system of experiment [2] is TK-10 renal.
For experiment [3], the system named is KM12 colon.
In experiment [4] the test system is MALME-3M melanoma.
In experiment [5] the test system is OVCAR-8 ovarian.
Experiment [6] has as its system SK-OV-3 ovarian.
The subject of experiment [7] is MOLT-4 leukemia.
The subject of experiment [8] is HT29 colon.
Experiment [9] concerns MCF7 breast.
Experiment [10] has as its system SF-539 CNS.

Consider `CC1OC(n2c3ccccc3c3c4c(c5c6ccccc6[nH]c5c32)C(=O)N(CCN[C@@H]2CCC[C@H]2N)C4=O)CC(O)C1O` (stereo partly drawn), for which the GI50 in experiment [1] was 1.68 µM; in experiment [2] it was 2.98 µM; in experiment [3], 1.35 µM; in experiment [4] it was 2.06 µM; in experiment [5], 1.93 µM; in [6], 2.51 µM. Besides, the results for the GI50 in experiment [7], in experiment [8] and in experiment [9] were 0.747 µM, 1.33 µM and 0.768 µM, respectively. Besides, the TGI was found to be 7.45 µM in experiment [1]; 11 µM in experiment [2]; 6.11 µM in [3]; 9.07 µM in experiment [4]; 9.11 µM in experiment [5]; 9.09 µM in experiment [6]. The figures for the TGI in experiment [7], in [8] and in experiment [9] were 4.74 µM, 5.46 µM and 2.05 µM, respectively.

Consider `O=C(N/C(=C/c1ccc(Cl)cc1Cl)c1nc2ccccc2s1)c1ccccc1`, for which the TGI is 54.9 µM in experiment [1]; 42.8 µM in experiment [2]; 31.1 µM in [10]; 26.5 µM in experiment [3]; 31.1 µM in experiment [4]; 47.4 µM in experiment [5]. Besides, the TGI in experiment [6] is 79.3 µM; in [7], over 100 µM; in [8] it was 40.1 µM; in experiment [9] it was 52.1 µM.

For the molecule `O=c1oc(Cl)c(Cl)c2ccccc12`, the GI50 was 24.8 µM in experiment [1]; 82.5 µM in experiment [2]; 17 µM in experiment [10]; 35.8 µM in [3]; 50 µM in experiment [4]; 47.8 µM in experiment [5]. In addition, the GI50 was 59.8 µM in experiment [6], 9.19 µM in [7], 34.9 µM in experiment [8] and 35.5 µM in experiment [9]. Further, the TGI in experiment [1] is 52.2 µM; in experiment [2], over 100 µM; in [10], 38.5 µM; in [3], over 100 µM; in experiment [4] it was over 100 µM; in [5], over 100 µM. Besides, the TGI in experiment [6] was over 100 µM; in experiment [7] it was 78.2 µM; in experiment [8] it was over 100 µM; in experiment [9], over 100 µM.

With `Cc1ccc(C(CC(=O)c2ccccc2)C2C(=O)NC(=O)NC2=O)cc1` (stereo not drawn), the GI50 in [1], in experiment [2], in [10], in [3], in experiment [4] and in experiment [5] was over 100 µM throughout. Further, the GI50 in [6], in [7], in experiment [8] and in [9] was over 100 µM in each case. Moreover, the TGI in experiment [1], in experiment [2], in [10], in experiment [3], in [4] and in [5] was over 100 µM throughout. For the same molecule, the total growth inhibition concentration (TGI) in experiment [6], in [7], in experiment [8] and in experiment [9] was over 100 µM each time.

Consider `COc1ccc(-c2nc(-c3ccccc3)c(-c3ccccc3)[nH]2)cc1OC1CCCC1`, for which the GI50 in [1] was 8.3 µM; in experiment [10], over 100 µM; in experiment [3], 40.9 µM; in experiment [4] it was over 100 µM; in experiment [5] it was over 100 µM; in experiment [6] it was over 100 µM. Besides, the results for the GI50 in experiment [7], in experiment [8] and in experiment [9] were 71.2 µM, 30.8 µM and over 100 µM, respectively. For the same molecule, the TGI in [1] was 99.5 µM; in [10], over 100 µM; in experiment [3] it was over 100 µM; in experiment [4], over 100 µM; in experiment [5] it was over 100 µM; in experiment [6], over 100 µM. Besides, the TGI in [7], in experiment [8] and in [9] was over 100 µM throughout.

`O=S(=O)(Nc1ccc(Br)c(Cl)c1)c1ccc(-c2cnc(C3CC3)o2)cc1`: the concentration for 50% growth inhibition (GI50) in [1] is 0.348 µM; in [2], 2.89 µM; in experiment [10], 0.374 µM; in experiment [3] it was 0.445 µM; in experiment [5], 1.5 µM; in [6], 1.49 µM. Besides, the figures for the GI50 in experiment [7], in experiment [8] and in experiment [9] were 0.688 µM, 0.356 µM and 0.339 µM, respectively. Also, the concentration for total growth inhibition (TGI) came to 3.48 µM in [1]; 20.6 µM in experiment [2]; 5.08 µM in experiment [10]; 14.9 µM in experiment [3]; 21.4 µM in [5]; 24.2 µM in [6]. Moreover, the TGI in experiment [7] was over 50.4 µM; in experiment [8], 5.23 µM; in experiment [9], 16 µM.

`Cc1cc(C(=C2C=CC(=Nc3ccccc3)C=C2)c2ccc(Nc3ccccc3)cc2)ccc1N`: the GI50 in experiment [1] was 0.344 µM; in [2], 0.359 µM; in experiment [10], 0.328 µM; in [3], 0.312 µM; in experiment [4], 0.25 µM; in experiment [5] it was 0.254 µM. Further, the GI50 was 1.52 µM in experiment [6], 0.164 µM in experiment [8] and 0.346 µM in experiment [9]. The total growth inhibition concentration (TGI) was found to be 1.28 µM in [1]; 1.11 µM in [2]; 1.16 µM in [10]; 1.05 µM in experiment [3]; 0.777 µM in [4]; 0.913 µM in experiment [5]. Also, the TGI in experiment [6] was 2.9 µM; in experiment [8] it was 0.302 µM; in experiment [9], 1.37 µM.

As for `COc1c(O)cc2oc(-c3ccc(O)cc3)cc(=O)c2c1O`, the TGI in [1], in experiment [2], in [10], in [3], in experiment [4] and in experiment [6] was over 100 µM in each case. The concentration for total growth inhibition (TGI) in experiment [7] is 83.2 µM; in experiment [8] it was over 100 µM; in experiment [9], over 100 µM.

Take `COc1cccc2c1C(=O)c1c(O)c3c(c(O)c1C2=O)CC(O)(C(O)CO)CC3OC1CC(N2CCOCC2)C(O)C(C)O1` (stereo not drawn): the GI50 is under 0.001 µM in experiment [1]; 0.0233 µM in experiment [2]; 0.0187 µM in [10]; 0.0132 µM in [4]; 0.0579 µM in experiment [6]; 0.0097 µM and 0.0243 µM in experiment [7]. Besides, the total growth inhibition concentration (TGI) in [10] was 0.014 µM and 0.0744 µM; in experiment [3], 0.114 µM; in experiment [4], 0.00768 µM and 0.0309 µM; in experiment [5] it was 0.0281 µM; in experiment [7], 0.205 µM and 0.185 µM; in [9], 0.0895 µM.

The values above are taken from PubChem BioAssay (NCI).
